Details: 99.6 kPa, Liquid; for viscosity: Capillary tube (Ostwald / Ubbelohde) method; for mass density: Vibrating tube method

CNC(C)=O [N-methylacetamide]
Details | mass density [kg/m3] | viscosity [mPa·s]
308.15 K | 946.01 | 3.57
313.15 K | 941.81 | 3.152
318.15 K | 937.59 | 2.8
323.15 K | 933.36 | 2.496
328.15 K | 929.17 | 2.245
